# In patent US20140228287A1, “1-[(3-CYANO-PYRIDIN-2-YL)METHYL]-3-METHYL-7-(2-BUTYN-1-YL)-8-[3-(R)-AMINO-PIPERIDIN-1-YL]-AXANTHINE FOR THE TREATMENT OF A METABOLIC DISORDER OF A PREDOMINANTLY CARNIVOROUS NON-HUMAN ANIMAL” (BOEHRINGER INGELHEIM VETMEDICA GMBH, priority 2010, published 2014):
# Counter-ions that a name gives are not always drawn. Like-named read-outs stand apart in the source and are kept apart here.
# Columns and labels:
# plasma DPP IV = experiment: Plasma DPP IV activity after oral administration, Rhesus monkey; format: in vivo; conditions: 1 mg/kg oral, 24 hours post dose
# Method: The effect of 1-[(3-cyano-pyridin-2-yl)methyl]-3-methyl-7-(2-butyn-1-yl)-8-[3-(R)-amino-piperidin-1-yl]-xanthine on plasma DPP IV activity after oral administration was investigated in the rat, the Beagle dog and the Rhesus monkey. These investigations were conducted as described in the following.
# Overnight fasted Rhesus monkeys (n=4; 2 males and 2 females) were administered oral doses of 1-[(3-cyano-pyridin-2-yl)methyl]-3-methyl-7-(2-butyn-1-yl)-8-[3-(R)-amino-piperidin-1-yl]-xanthine monohydrochloride at 1 mg/kg bw. Blood samples were drawn from a butterfly that was inserted into a forearm vein of restrained monkeys. Blood was collected in EDTA tubes prior to administration of 1-[(3-cyano-pyridin-2-yl)methyl]-3-methyl-7-(2-butyn-1-yl)-8-[3-(R)-amino-piperidin-1-yl]-xanthine monohydrochloride and subsequently at 0.5, 1, 2, 4, 8, 24, 48, and 72 hour time points post dose. Plasma was prepared following blood collection and frozen for determination of DPP-IV activity.
# DPP IV = molecular target: T1, DPP IV (Felis catus, UniProt Q9N2I7); experiment: Exploratory multiple dose PK/PD (1.0/3.0/9.0 mg/animal, 14 days) in cats: DPP IV activity; format: in vivo, cat; conditions: for response vs control in vivo at 1 mg/animal: head 1 mg/animal (title 1.0 mg/animal); for response vs control in vivo at 1 mg/animal / response vs control in vivo at 3 mg/animal / response vs control in vivo at 9 mg/animal: read-out: DPP IV activity in cat plasma; for response vs control in vivo at 3 mg/animal: head 3 mg/animal (title 3.0 mg/animal)
# T1 construct: Blood samples for the determination of this compound and DPP IV activity were collected; from tissue; host or cells: plasma of domestic short hair / purpose-bred cats dosed orally
# Method: The aim of this study was to investigate the PK/PD effects of 1-[(3-cyano-pyridin-2-yl)methyl]-3-methyl-7-(2-butyn-1-yl)-8-[3-(R)-amino-piperidin-1-yl]-xanthine in cats following repeated oral administration of 0, 1, 3 and 9 mg/animal over 14 days corresponding to a dose of 0, 0.25, 0.75 and 2.25 mg/kg body weight for a cat weighing 4 kg. (Dosages were based on the free base: 1 mg 1-[(3-cyano-pyridin-2-yl)methyl]-3-methyl-7-(2-butyn-1-yl)-8-[3-(R)-amino-piperidin-1-yl]-xanthine monohydrochloride corresponds to 0.923 mg 1-[(3-cyano-pyridin-2-yl)methyl]-3-methyl-7-(2-butyn-1-yl)-8-[3-(R)-amino-piperidin-1-yl]-xanthine free base).
# For this purpose, twelve clinically healthy male adult domestic short hair cats with a body weight range of 3.5-4.8 kg were used. The animals were randomly allocated to 4 groups, 3 animals per group. All animals were treated once daily orally for 14 days (i.e. on days 0-13). The test article was administered via capsules at doses of 1 (group II), 3 (group III) or 9 (group IV) mg of the monohydrochloride compound per animal; group I received placebo serving as controls. Blood samples for PK and PD (DPP IV activity) investigations were drawn at 0 h (i.e. prior to the 1st treatment), 0.5, 1, 2, 4, 8, 12 and 24 h after the 1st treatment as well as 24 h after the 3rd, 5th, 7th, 9th, 11th and 13th treatment and 0.5, 1, 2, 4, 8, 12 and 24 h after the 14th treatment.
# [1] = 0.5 h, once daily oral 14 days, 0.5 h
# [2] = 1 h, once daily oral 14 days, 1 h
# [3] = 2 h, once daily oral 14 days, 2 h
# [4] = 4 h, once daily oral 14 days, 4 h
# [5] = 8 h, once daily oral 14 days, 8 h
# [6] = 12 h, once daily oral 14 days, 12 h
# [7] = 24 h, once daily oral 14 days, 24 h
# [8] = 72 h, once daily oral 14 days, 72 h
# [9] = 120 h, once daily oral 14 days, 120 h
# [10] = 168 h, once daily oral 14 days, 168 h
# [11] = 216 h, once daily oral 14 days, 216 h
# [12] = 264 h, once daily oral 14 days, 264 h
# [13] = 312 h, once daily oral 14 days, 312 h
# [14] = 312.5 h, once daily oral 14 days, 312.5 h
# [15] = 313 h, once daily oral 14 days, 313 h
# [16] = 314 h, once daily oral 14 days, 314 h
# [17] = 316 h, once daily oral 14 days, 316 h
# [18] = 320 h, once daily oral 14 days, 320 h
# [19] = 324 h, once daily oral 14 days, 324 h
# [20] = 336 h, once daily oral 14 days, 336 h
# T1 sequence (Q9N2I7 38-765 limits assumed): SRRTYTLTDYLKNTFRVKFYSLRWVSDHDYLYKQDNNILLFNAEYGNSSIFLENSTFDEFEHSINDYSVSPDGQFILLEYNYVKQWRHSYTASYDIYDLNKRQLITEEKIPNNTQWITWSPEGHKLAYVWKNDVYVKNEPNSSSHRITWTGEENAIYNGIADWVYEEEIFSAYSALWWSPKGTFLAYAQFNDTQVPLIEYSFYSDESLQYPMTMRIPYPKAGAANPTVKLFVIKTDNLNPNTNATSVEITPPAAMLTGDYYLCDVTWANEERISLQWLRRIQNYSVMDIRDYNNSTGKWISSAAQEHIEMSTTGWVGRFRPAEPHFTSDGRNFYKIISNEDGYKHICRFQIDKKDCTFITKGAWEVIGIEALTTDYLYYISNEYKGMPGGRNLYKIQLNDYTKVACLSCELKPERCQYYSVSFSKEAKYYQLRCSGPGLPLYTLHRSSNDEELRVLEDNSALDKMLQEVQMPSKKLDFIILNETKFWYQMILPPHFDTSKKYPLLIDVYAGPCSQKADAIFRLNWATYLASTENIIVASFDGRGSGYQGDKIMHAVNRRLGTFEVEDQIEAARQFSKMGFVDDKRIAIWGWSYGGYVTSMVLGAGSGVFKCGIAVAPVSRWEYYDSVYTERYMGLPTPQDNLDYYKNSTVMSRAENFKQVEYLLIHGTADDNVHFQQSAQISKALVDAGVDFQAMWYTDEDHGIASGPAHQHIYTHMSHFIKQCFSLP
smiles,measurement,setting,value
CC#CCn1c(N2CCC[C@@H](N)C2)nc2c1c(=O)n(Cc1ncccc1C#N)c(=O)n2C [1-[(3-cyano-pyridin-2-yl)methyl]-3-methyl-7-(2-butyn-1-yl)-8-[3-(R)-amino-piperidin-1-yl]-xanthine monohydrochloride],inhibition of plasma DPP IV activity,plasma DPP IV,54%
same,response vs control in vivo at 1 mg/animal,DPP IV; [1],31.3%
same,response vs control in vivo at 3 mg/animal,DPP IV; [1],16%
same,response vs control in vivo at 9 mg/animal,"DPP IV; 0.5 h, head 9 mg/animal (title 9.0 mg/animal), once daily oral 14 days, 0.5 h",8%
same,response vs control in vivo at 1 mg/animal,DPP IV; [2],8.7%
same,response vs control in vivo at 3 mg/animal,DPP IV; [2],10.3%
same,response vs control in vivo at 9 mg/animal,"DPP IV; 1 h, head 9 mg/animal (title 9.0 mg/animal), once daily oral 14 days, 1 h",7.3%
same,response vs control in vivo at 1 mg/animal,DPP IV; [3],9.7%
same,response vs control in vivo at 3 mg/animal,DPP IV; [3],8%
same,response vs control in vivo at 9 mg/animal,"DPP IV; 2 h, head 9 mg/animal (title 9.0 mg/animal), once daily oral 14 days, 2 h",7%
same,response vs control in vivo at 1 mg/animal,DPP IV; [4],11.7%
same,response vs control in vivo at 3 mg/animal,DPP IV; [4],8%
same,response vs control in vivo at 9 mg/animal,"DPP IV; 4 h, head 9 mg/animal (title 9.0 mg/animal), once daily oral 14 days, 4 h",8%
same,response vs control in vivo at 1 mg/animal,DPP IV; [5],17%
same,response vs control in vivo at 3 mg/animal,DPP IV; [5],11.3%
same,response vs control in vivo at 9 mg/animal,"DPP IV; 8 h, head 9 mg/animal (title 9.0 mg/animal), once daily oral 14 days, 8 h",9.3%
same,response vs control in vivo at 1 mg/animal,DPP IV; [6],28%
same,response vs control in vivo at 3 mg/animal,DPP IV; [6],14%
same,response vs control in vivo at 9 mg/animal,"DPP IV; 12 h, head 9 mg/animal (title 9.0 mg/animal), once daily oral 14 days, 12 h",10.7%
same,response vs control in vivo at 1 mg/animal,DPP IV; [7],57.7%
same,response vs control in vivo at 3 mg/animal,DPP IV; [7],31.7%
same,response vs control in vivo at 9 mg/animal,"DPP IV; 24 h, head 9 mg/animal (title 9.0 mg/animal), once daily oral 14 days, 24 h",18%
same,response vs control in vivo at 1 mg/animal,DPP IV; [8],35.3%
same,response vs control in vivo at 3 mg/animal,DPP IV; [8],23.3%
same,response vs control in vivo at 9 mg/animal,"DPP IV; 72 h, head 9 mg/animal (title 9.0 mg/animal), once daily oral 14 days, 72 h",14.3%
same,response vs control in vivo at 1 mg/animal,DPP IV; [9],63%
same,response vs control in vivo at 3 mg/animal,DPP IV; [9],31.7%
same,response vs control in vivo at 9 mg/animal,"DPP IV; 120 h, head 9 mg/animal (title 9.0 mg/animal), once daily oral 14 days, 120 h",17.7%
same,response vs control in vivo at 1 mg/animal,DPP IV; [10],54%
same,response vs control in vivo at 3 mg/animal,DPP IV; [10],41%
same,response vs control in vivo at 9 mg/animal,"DPP IV; 168 h, head 9 mg/animal (title 9.0 mg/animal), once daily oral 14 days, 168 h",14.7%
same,response vs control in vivo at 1 mg/animal,DPP IV; [11],57%
same,response vs control in vivo at 3 mg/animal,DPP IV; [11],31.7%
same,response vs control in vivo at 9 mg/animal,"DPP IV; 216 h, head 9 mg/animal (title 9.0 mg/animal), once daily oral 14 days, 216 h",15%
same,response vs control in vivo at 1 mg/animal,DPP IV; [12],32.7%
same,response vs control in vivo at 3 mg/animal,DPP IV; [12],19.3%
same,response vs control in vivo at 9 mg/animal,"DPP IV; 264 h, head 9 mg/animal (title 9.0 mg/animal), once daily oral 14 days, 264 h",14%
same,response vs control in vivo at 1 mg/animal,DPP IV; [13],61.3%
same,response vs control in vivo at 3 mg/animal,DPP IV; [13],34%
same,response vs control in vivo at 9 mg/animal,"DPP IV; 312 h, head 9 mg/animal (title 9.0 mg/animal), once daily oral 14 days, 312 h",17.3%
same,response vs control in vivo at 1 mg/animal,DPP IV; [14],14%
same,response vs control in vivo at 3 mg/animal,DPP IV; [14],9%
same,response vs control in vivo at 9 mg/animal,"DPP IV; 312.5 h, head 9 mg/animal (title 9.0 mg/animal), once daily oral 14 days, 312.5 h",10%
same,response vs control in vivo at 1 mg/animal,DPP IV; [15],14%
same,response vs control in vivo at 3 mg/animal,DPP IV; [15],8.3%
same,response vs control in vivo at 9 mg/animal,"DPP IV; 313 h, head 9 mg/animal (title 9.0 mg/animal), once daily oral 14 days, 313 h",7.7%
same,response vs control in vivo at 1 mg/animal,DPP IV; [16],13.3%
same,response vs control in vivo at 3 mg/animal,DPP IV; [16],8.7%
same,response vs control in vivo at 9 mg/animal,"DPP IV; 314 h, head 9 mg/animal (title 9.0 mg/animal), once daily oral 14 days, 314 h",7.7%
same,response vs control in vivo at 1 mg/animal,DPP IV; [17],14.7%
same,response vs control in vivo at 3 mg/animal,DPP IV; [17],9.7%
same,response vs control in vivo at 9 mg/animal,"DPP IV; 316 h, head 9 mg/animal (title 9.0 mg/animal), once daily oral 14 days, 316 h",8%
same,response vs control in vivo at 1 mg/animal,DPP IV; [18],22.3%
same,response vs control in vivo at 3 mg/animal,DPP IV; [18],12.3%
same,response vs control in vivo at 9 mg/animal,"DPP IV; 320 h, head 9 mg/animal (title 9.0 mg/animal), once daily oral 14 days, 320 h",10.3%
same,response vs control in vivo at 1 mg/animal,DPP IV; [19],32.3%
same,response vs control in vivo at 3 mg/animal,DPP IV; [19],15%
same,response vs control in vivo at 9 mg/animal,"DPP IV; 324 h, head 9 mg/animal (title 9.0 mg/animal), once daily oral 14 days, 324 h",12%
same,response vs control in vivo at 1 mg/animal,DPP IV; [20],67.7%
same,response vs control in vivo at 3 mg/animal,DPP IV; [20],31.3%
same,response vs control in vivo at 9 mg/animal,"DPP IV; 336 h, head 9 mg/animal (title 9.0 mg/animal), once daily oral 14 days, 336 h",18.7%
same,time up to which mean DPP IV values remained ≦20% after 1st treatment,DPP IV; group II (1 mg per animal),8 h
same,time up to which mean DPP IV values remained ≦20% after the 14th treatment,DPP IV; group II (1 mg per animal),4 h
same,minimum mean DPP IV values after treatment on day 0,"DPP IV; group II (1 mg per animal), at 1 h",9%
same,"mean DPP IV activity, range 24 h after 3rd-13th treatment (72-312 h)",DPP IV; group II (1 mg/cat),33-63%
same,time up to which mean DPP IV values remained ≦20% after 1st treatment,DPP IV; group III (3 mg per animal),12 h
same,time up to which mean DPP IV values remained ≦20% after the 14th treatment,DPP IV; group III (3 mg per animal),12 h
same,minimum mean DPP IV values after treatment on day 0,"DPP IV; group III (3 mg per animal), at 2 and 4 h",8%
same,"mean DPP IV activity, range 24 h after 3rd-13th treatment (72-312 h)",DPP IV; group III (3 mg/cat),19-41%
same,time up to which mean DPP IV values remained ≦20% after 1st treatment,DPP IV; group IV (9 mg per animal),24 h
same,time up to which mean DPP IV values remained ≦20% after the 14th treatment,DPP IV; group IV (9 mg per animal),24 h
same,minimum mean DPP IV values after treatment on day 0,"DPP IV; group IV (9 mg per animal), at 1 and 2 h",7%
same,"mean DPP IV activity, range 24 h after 3rd-13th treatment (72-312 h)",DPP IV; group IV (9 mg/cat),14-18%
same,DPP IV activity in cat plasma,"DPP IV; head 9 mg/animal (title 9.0 mg/animal), once daily oral 14 days, 312.5 h, monohydrochloride",10.0%
